For experiment [1], the target named is Dual specificity tyrosine-phosphorylation-regulated kinase 1A (Rattus norvegicus) (UniProt Q63470). Nature of the experiment: Inhibition of recombinant rat N-terminal GST-tagged DYRK1A (1 to 499 residues) expressed in Escherichia coli using KKISGRLSPIMTEQ-NH2 as substrate at 100 uM incubated for 10 mins by scintillation counting method relative to control.

Experiment [2] deals with Receptor-type tyrosine-protein kinase FLT3 (Homo sapiens) (UniProt P36888). As to the kind of experiment: Inhibition of human recombinant N-terminal GST-His6-tagged FLT3 (R571-S993 residues) expressed in baculovirus infected sf9 cells using KVEKIGEGTYGVVYK as substrate at 100 uM incubated for 10 mins by scintillation counting method relative to control.
Experiment [3] concerns the target Focal adhesion kinase 1 (Homo sapiens) (UniProt Q05397). Nature of the experiment: Inhibition of human recombinant FAK expressed in baculovirus infected sf9 cells using KVEKIGEGTYGVVYK as substrate at 100 uM incubated for 10 mins by scintillation counting method relative to control.
For experiment [4], the target named is CDK9/Cyclin K (Homo sapiens) (UniProt P50750+O75909). Nature of the experiment: Inhibition of full length human recombinant N-terminal GST-tagged CDK9/Cyclin K expressed in baculovirus infected sf9 cells using CDKtide as substrate at 100 uM incubated for 10 mins by scintillation counting method relative to control.
The target in experiment [5] is Cyclin-dependent kinase 4/cyclin D1 (Homo sapiens) (UniProt P11802+P24385). As to the kind of experiment: Inhibition of full length human recombinant N-terminal GST-tagged CDK4/Cyclin D1 expressed in baculovirus infected sf9 cells using RB-CTF as substrate at 100 uM incubated for 10 mins by scintillation counting method relative to control.
The target of experiment [6] is T1, Leucine-rich repeat serine/threonine-protein kinase 2 (Homo sapiens, UniProt Q5S007, G2019S). Nature of the experiment: Mixed type inhibition of human recombinant GST-tagged LRRK2 G2019S mutant (970 residues) expressed in baculovirus expression system assessed as enzyme-substrate-inhibitor complex by Michaelis-Menten kinetics in presence of varying level of ATP.
T1 sequence (Q5S007 whole entry G2019S): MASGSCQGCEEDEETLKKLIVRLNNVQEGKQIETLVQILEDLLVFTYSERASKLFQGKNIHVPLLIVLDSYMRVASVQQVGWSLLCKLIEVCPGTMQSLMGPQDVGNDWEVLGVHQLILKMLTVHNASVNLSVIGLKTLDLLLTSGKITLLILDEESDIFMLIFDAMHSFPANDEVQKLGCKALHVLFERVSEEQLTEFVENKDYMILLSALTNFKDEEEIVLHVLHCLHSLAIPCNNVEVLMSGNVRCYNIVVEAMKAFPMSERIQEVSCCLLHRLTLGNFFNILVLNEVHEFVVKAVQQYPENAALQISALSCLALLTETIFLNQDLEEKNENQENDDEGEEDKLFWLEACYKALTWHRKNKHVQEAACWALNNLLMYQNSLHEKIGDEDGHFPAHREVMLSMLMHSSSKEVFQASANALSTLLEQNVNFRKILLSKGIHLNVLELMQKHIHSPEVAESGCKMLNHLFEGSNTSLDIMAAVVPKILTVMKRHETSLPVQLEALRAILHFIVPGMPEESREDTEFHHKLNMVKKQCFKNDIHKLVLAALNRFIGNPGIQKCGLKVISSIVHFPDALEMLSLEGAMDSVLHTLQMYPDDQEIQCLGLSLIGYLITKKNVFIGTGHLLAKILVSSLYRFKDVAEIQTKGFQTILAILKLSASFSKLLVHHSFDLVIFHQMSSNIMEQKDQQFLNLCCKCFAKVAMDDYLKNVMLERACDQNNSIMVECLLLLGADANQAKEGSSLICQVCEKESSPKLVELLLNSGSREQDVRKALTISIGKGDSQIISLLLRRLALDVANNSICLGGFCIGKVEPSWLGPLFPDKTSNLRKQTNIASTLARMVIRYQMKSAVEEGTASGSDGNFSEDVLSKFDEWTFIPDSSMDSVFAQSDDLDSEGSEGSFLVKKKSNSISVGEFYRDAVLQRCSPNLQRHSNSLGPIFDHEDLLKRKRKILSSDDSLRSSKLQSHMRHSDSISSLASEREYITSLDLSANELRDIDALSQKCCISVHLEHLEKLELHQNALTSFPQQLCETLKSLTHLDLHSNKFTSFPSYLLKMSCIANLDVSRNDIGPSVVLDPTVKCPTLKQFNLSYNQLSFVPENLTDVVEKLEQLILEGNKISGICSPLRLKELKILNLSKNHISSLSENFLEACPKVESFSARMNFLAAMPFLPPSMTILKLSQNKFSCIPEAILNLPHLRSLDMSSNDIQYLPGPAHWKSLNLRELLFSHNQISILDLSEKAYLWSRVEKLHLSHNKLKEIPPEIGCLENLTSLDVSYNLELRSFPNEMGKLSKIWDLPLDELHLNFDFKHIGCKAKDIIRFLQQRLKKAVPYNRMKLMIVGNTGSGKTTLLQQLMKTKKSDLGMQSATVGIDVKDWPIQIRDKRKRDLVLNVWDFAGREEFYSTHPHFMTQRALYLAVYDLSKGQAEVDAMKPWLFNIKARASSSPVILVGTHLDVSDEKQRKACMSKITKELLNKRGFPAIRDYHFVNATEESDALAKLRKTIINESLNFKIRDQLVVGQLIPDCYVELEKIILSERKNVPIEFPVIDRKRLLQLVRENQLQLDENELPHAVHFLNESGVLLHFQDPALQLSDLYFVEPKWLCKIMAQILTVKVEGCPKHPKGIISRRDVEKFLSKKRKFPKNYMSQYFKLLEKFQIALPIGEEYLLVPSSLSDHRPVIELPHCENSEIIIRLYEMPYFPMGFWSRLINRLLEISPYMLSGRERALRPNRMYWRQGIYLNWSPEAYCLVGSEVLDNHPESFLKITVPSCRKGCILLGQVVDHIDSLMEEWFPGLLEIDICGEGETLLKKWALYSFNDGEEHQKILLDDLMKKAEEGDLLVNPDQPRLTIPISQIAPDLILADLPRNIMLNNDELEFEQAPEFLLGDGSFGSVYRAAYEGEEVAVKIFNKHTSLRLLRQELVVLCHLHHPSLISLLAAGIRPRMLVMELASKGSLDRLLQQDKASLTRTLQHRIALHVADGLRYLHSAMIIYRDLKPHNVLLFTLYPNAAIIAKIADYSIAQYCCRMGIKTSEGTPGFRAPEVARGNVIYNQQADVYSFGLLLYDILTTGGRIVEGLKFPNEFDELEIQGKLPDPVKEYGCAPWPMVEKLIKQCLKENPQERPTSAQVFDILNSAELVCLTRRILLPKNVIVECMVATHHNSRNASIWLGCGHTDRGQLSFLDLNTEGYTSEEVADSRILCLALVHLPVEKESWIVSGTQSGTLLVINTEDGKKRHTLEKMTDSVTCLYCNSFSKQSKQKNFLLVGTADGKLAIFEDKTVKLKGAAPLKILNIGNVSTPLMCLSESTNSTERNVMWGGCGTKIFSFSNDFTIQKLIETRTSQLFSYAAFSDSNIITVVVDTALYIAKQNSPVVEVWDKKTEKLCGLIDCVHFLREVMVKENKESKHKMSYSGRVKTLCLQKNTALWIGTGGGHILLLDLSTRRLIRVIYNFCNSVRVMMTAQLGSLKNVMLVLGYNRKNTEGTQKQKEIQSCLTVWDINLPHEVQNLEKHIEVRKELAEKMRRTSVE

In experiment [7] the target is Phosphatidylinositol 4-kinase beta (Homo sapiens) (UniProt Q9UBF8). Nature of the experiment: Inhibition of full length human recombinant N-terminal GST-His-tagged PI4KB expressed in sf9 cells using phosphatidyl inositol:phosphatidyl serine (1:3) substrate at 100 uM by ADP-Glo kinase assay relative to control. (ADP-Glo turns the ADP formed in a reaction into a luminescent signal.)

The target of experiment [8] is CDK6/cyclin D1 (Homo sapiens) (UniProt P24385+Q00534). Nature of the experiment: Inhibition of full length human recombinant N-terminal His-tagged CDK6/N-terminal GST-tagged Cyclin D1 expressed in baculovirus infected sf9 cells using RB-CTF as substrate at 100 uM incubated for 10 mins by scintillation counting method relative to control.
Experiment [9] is described as follows: Selectivity ratio of ID50 for human recombinant N-terminal GST-tagged LRRK2 (968 residues) expressed in baculovirus infected sf9 cells to ID50 for human recombinant GST-tagged LRRK2 G2019S mutant (970 residues) expressed in baculovirus expression system.
Experiment [10] has as its system Leucine-rich repeat serine/threonine-protein kinase 2 (Homo sapiens), Q5S007 [G2019S]. As to the kind of experiment: Inhibition of human recombinant GST-tagged LRRK2 G2019S mutant (970 residues) expressed in baculovirus expression system using LRRKtide as substrate incubated for 10 mins by scintillation counting method in presence of [gamma33P]ATP.
For experiment [11], the target named is Serine/threonine-protein kinase pim-1 (Homo sapiens) (UniProt P11309). As to the kind of experiment: Inhibition of full length human recombinant N-terminal GST-tagged PIM1 expressed in Escherichia coli using S6 Kinase/Rsk2 peptide2 as substrate at 100 uM incubated for 10 mins by scintillation counting method relative to control.
Sequence of Serine/threonine-protein kinase pim-1 (Homo sapiens) (P11309 whole entry, looked up): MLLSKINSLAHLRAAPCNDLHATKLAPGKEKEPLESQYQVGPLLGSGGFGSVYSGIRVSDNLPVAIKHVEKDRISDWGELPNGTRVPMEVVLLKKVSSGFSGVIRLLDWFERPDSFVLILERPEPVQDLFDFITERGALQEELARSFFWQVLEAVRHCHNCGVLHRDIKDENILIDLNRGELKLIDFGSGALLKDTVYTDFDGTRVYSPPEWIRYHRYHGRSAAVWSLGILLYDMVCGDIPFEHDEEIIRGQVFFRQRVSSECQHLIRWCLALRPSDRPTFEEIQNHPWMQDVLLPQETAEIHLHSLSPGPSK
Experiment [12] addresses Leucine-rich repeat serine/threonine-protein kinase 2 (Homo sapiens) (UniProt Q5S007). Nature of the experiment: Inhibition of human recombinant N-terminal GST-tagged LRRK2 (968 residues) expressed in baculovirus infected sf9 cells using LRRKtide as substrate at 50 uM incubated for 10 mins by scintillation counting method in presence of [gamma33P]ATP.
Experiment [13] deals with Glycogen synthase kinase-3 beta (Homo sapiens) (UniProt P49841). Nature of the experiment: Inhibition of full length human recombinant N-terminal GST-tagged GSK3beta expressed in baculovirus infected sf9 cells using GSK3 substrate at 100 uM incubated for 10 mins by scintillation counting method relative to control.
Sequence of Glycogen synthase kinase-3 beta (Homo sapiens) (P49841 whole entry, looked up, the tested form may be a part): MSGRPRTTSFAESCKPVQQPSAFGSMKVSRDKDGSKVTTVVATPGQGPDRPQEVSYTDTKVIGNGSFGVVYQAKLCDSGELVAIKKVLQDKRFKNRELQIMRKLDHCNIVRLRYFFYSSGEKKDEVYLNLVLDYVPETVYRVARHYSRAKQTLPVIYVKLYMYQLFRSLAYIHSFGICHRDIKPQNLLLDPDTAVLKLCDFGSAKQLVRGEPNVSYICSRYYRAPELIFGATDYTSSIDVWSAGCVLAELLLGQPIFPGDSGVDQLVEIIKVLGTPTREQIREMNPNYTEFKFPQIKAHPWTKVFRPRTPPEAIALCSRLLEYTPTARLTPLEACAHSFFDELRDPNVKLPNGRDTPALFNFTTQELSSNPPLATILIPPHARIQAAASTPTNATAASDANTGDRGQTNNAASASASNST
Experiment [14] deals with CDK9/cyclin T1 (Homo sapiens) (UniProt O60563+P50750). As to the kind of experiment: Inhibition of full length human recombinant N-terminal GST-His6-tagged CDK9 (M1-F372 residues)/Cyclin T1 (M1-K726 residues) expressed in baculovirus infected sf9 cells using CDKtide as substrate at 100 uM incubated for 10 mins by scintillation counting method relative to control.
Experiment [15] has as its target CDK2/Cyclin A2 (Homo sapiens) (UniProt P24941+P20248). As to the kind of experiment: Inhibition of full length human recombinant N-terminal GST-tagged CDK2 (M1-L298 residues)/Cyclin A2 (M1-L432 residues) expressed in baculovirus infected sf9 cells using histone H1 as substrate at 100 uM incubated for 10 mins by scintillation counting method relative to control.

In experiment [16] the target is Leucine-rich repeat serine/threonine-protein kinase 2 (Homo sapiens) (UniProt Q5S007). As to the kind of experiment: Inhibition of human recombinant N-terminal GST-tagged LRRK2 (968 residues) expressed in baculovirus infected sf9 cells using LRRKtide as substrate incubated for 10 mins by scintillation counting method in presence of [gamma33P]ATP.
Sequence of Leucine-rich repeat serine/threonine-protein kinase 2 (Homo sapiens) (Q5S007 whole entry): as the sequence (Q5S007 whole entry G2019S) above, with S2019G counted along it
Experiment [17] has as its system Leucine-rich repeat serine/threonine-protein kinase 2 (Homo sapiens), Q5S007 [G2019S]. As to the kind of experiment: Inhibition of human recombinant GST-tagged LRRK2 G2019S mutant (970 residues) expressed in baculovirus expression system using LRRKtide as substrate at 50 uM incubated for 10 mins by scintillation counting method in presence of [gamma33P]ATP.
In experiment [18] the target is Tyrosine-protein kinase HCK (Homo sapiens) (UniProt P08631). Nature of the experiment: Inhibition of full length human recombinant N-terminal GST-His6-tagged HCK (M1 to P505 residues) expressed in baculovirus infected sf9 cells using KVEKIGEGTYGVVYK as substrate at 100 uM incubated for 10 mins by scintillation counting method relative to control.
Sequence of Tyrosine-protein kinase HCK (Homo sapiens) (P08631 2-526 limits assumed): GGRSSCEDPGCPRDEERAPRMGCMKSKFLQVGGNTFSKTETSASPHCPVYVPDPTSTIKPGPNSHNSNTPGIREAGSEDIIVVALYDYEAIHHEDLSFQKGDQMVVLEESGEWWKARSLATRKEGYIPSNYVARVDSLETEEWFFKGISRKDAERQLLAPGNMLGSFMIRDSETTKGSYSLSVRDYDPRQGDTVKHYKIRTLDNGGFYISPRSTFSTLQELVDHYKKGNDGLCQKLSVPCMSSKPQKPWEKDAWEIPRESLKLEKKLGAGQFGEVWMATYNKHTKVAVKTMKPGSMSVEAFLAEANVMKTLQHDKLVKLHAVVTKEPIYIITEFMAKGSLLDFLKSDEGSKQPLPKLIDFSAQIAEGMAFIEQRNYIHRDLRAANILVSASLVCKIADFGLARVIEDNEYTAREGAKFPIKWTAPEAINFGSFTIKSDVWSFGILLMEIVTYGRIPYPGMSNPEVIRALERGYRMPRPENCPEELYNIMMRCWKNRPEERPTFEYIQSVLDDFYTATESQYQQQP
Experiment [19] addresses Proto-oncogene tyrosine-protein kinase Src (Homo sapiens) (UniProt P12931). As to the kind of experiment: Inhibition of full length human recombinant N-terminal His6-tagged SRC expressed in baculovirus infected sf21 cells using KVEKIGEGTYGVVYK as substrate at 100 uM incubated for 10 mins by scintillation counting method relative to control.
For experiment [20], the target named is Tyrosine-protein kinase ABL1 (Homo sapiens) (UniProt P00519). As to the kind of experiment: Inhibition of human recombinant N-terminal His-tagged ABL (27 residues) expressed in baculovirus infected sf9 cells using KKGEAIYAAPFA-NH2 as substrate at 100 uM incubated for 10 mins by scintillation counting method relative to control.
Experiment [21] addresses T1, Leucine-rich repeat serine/threonine-protein kinase 2. As to the kind of experiment: Mixed type inhibition of human recombinant GST-tagged LRRK2 G2019S mutant (970 residues) expressed in baculovirus expression system assessed as enzyme-inhibitor complex by Michaelis-Menten kinetics in presence of varying level of ATP.
For experiment [22], the target named is Leucine-rich repeat serine/threonine-protein kinase 2 (Homo sapiens) (UniProt Q5S007). Nature of the experiment: Inhibition of human recombinant N-terminal GST-tagged LRRK2 (968 residues) expressed in baculovirus infected sf9 cells using LRRKtide as substrate at 100 uM incubated for 10 mins by scintillation counting method in presence of [gamma33P]ATP.
The subject of experiment [23] is Leucine-rich repeat serine/threonine-protein kinase 2 (Homo sapiens), Q5S007 [G2019S]. As to the kind of experiment: Inhibition of human recombinant GST-tagged LRRK2 G2019S mutant (970 residues) expressed in baculovirus expression system using LRRKtide as substrate at 100 uM incubated for 10 mins by scintillation counting method in presence of [gamma33P]ATP.
For experiment [24], the target named is T1, Leucine-rich repeat serine/threonine-protein kinase 2. Nature of the experiment: Competitive inhibition of human recombinant GST-tagged LRRK2 G2019S mutant (970 residues) expressed in baculovirus expression system assessed as enzyme-inhibitor complex by Michaelis-Menten kinetics in presence of varying level of ATP.
Experiment [25] concerns Leucine-rich repeat serine/threonine-protein kinase 2 (Homo sapiens), Q5S007 [G2019S]. As to the kind of experiment: Ratio of enzyme-substrate-inhibitor complex Ki to enzyme-inhibitor complex Ki for human recombinant GST-tagged LRRK2 G2019S mutant (970 residues) expressed in baculovirus expression system.
Sequence of Leucine-rich repeat serine/threonine-protein kinase 2 (Homo sapiens), Q5S007 [G2019S] (Q5S007 whole entry G2019S, the tested form may be a part): as the sequence (Q5S007 whole entry G2019S) above

Activity calls are given as the source filed them. No cut-off for these calls is given here.

Sequence of Focal adhesion kinase 1 (Homo sapiens) (Q05397 2-1052 limits assumed): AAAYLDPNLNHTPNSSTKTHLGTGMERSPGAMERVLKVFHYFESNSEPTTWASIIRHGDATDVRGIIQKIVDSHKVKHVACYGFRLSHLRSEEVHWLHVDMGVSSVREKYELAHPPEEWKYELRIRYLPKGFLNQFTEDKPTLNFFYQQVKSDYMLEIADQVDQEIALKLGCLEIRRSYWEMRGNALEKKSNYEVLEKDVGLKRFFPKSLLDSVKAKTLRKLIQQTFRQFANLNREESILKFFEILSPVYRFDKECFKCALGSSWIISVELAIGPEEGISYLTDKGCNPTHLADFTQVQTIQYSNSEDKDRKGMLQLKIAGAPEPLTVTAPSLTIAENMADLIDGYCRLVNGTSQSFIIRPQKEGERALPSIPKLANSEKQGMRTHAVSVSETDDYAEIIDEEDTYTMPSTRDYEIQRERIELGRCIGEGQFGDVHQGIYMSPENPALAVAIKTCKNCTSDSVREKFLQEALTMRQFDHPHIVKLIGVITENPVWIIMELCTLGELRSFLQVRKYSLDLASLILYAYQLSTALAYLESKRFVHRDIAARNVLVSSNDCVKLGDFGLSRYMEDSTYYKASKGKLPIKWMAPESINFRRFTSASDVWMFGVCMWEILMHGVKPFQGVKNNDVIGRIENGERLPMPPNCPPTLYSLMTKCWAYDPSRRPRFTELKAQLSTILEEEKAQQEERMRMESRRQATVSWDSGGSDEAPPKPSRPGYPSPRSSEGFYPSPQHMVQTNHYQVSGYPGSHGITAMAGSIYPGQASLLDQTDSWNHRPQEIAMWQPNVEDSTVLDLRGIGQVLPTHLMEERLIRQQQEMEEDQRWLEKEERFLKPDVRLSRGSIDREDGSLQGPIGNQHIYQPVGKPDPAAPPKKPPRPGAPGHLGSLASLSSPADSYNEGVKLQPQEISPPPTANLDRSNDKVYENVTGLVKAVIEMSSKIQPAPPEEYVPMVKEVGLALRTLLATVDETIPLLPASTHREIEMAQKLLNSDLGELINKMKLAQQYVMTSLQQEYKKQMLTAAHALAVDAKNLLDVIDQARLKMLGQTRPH

Regarding `COc1ccc(/C=N/Nc2cc(C)c3ccccc3n2)cc1`, the inhibition (as a rule, the change of the read-out against control, counted positive when it falls) in experiment [1] turned out to be 0%; in experiment [2], 50%; in experiment [3], 11%; in [4], 53%; in [5], 9%; in experiment [7] it was 32%. Moreover, the inhibition in experiment [8] was found to be 42%; in experiment [11] it was 20%; in [13], 0%; in [14] it was 0%; in experiment [15], 9%; in [18], 0%. In addition, the inhibition in experiment [19] came to 31%; in [20], 43%. Also, the inhibitory constant (Ki) (commonly the dissociation constant of the complex between target and ligand, obtained from inhibition or displacement) in experiment [6] amounted to 1800 nM; in experiment [21], 740 nM. The Selectivity ratio in experiment [9] was 4. Also, the ID50 in experiment [10] turned out to be 900 nM; in experiment [16], 3000 nM. The inhibition result in experiment [12] and in experiment [17] was “Active” in each case.
`Cc1cc(N/N=C/c2ccc(OC(=O)c3ccc(N4CCN(C)CC4)cc3)cc2)nc2ccccc12`: the inhibition result in [22] and in experiment [23] was “inactive” throughout.
As for `COc1ccc(-c2nnc3c(NCCN4CCOCC4)cccn23)cc1OC`, the inhibition in experiment [1] was 26%; in experiment [2], 0%; in [3] it was 8%; in experiment [4] it was 38%; in experiment [5], 10%; in [7], 3%. The inhibition amounted to 18% in experiment [8]; 29% in [11]; 14% in experiment [13]; 24% in experiment [14]; 22% in experiment [15]; 0% in experiment [18]. Also, the inhibition in [19] was 40%; in experiment [20], 19%. For the same molecule, the inhibition entry in experiment [22] and in experiment [23] was “Active” throughout. In addition, the Ki in experiment [24] worked out at 5610 nM. Further, the Selectivity ratio in [9] worked out at 3.5. For the same molecule, the ID50 worked out at 9100 nM in [10] and 32000 nM in [16].
Regarding `COc1ccc(/C=N/Nc2ncccc2Cl)cc1OC`, the inhibition result in experiment [22] and in experiment [23] was “Active” throughout.
As to `COc1ccc(/C=N/Nc2nc(C)cc(C)c2C#N)cc1`, the inhibition result in experiment [22] and in [23] was “Active” in each case.
On to `C/C(=N\Nc1ccc2ccccc2n1)c1ccccc1O`, for which the inhibition in experiment [1] stood at 9%; in experiment [2] it was 3%; in [3], 1%; in [4], 2%; in experiment [5], 7%; in experiment [7], 0%. The inhibition was 1% in experiment [8]; 3% in experiment [11]; 1% in experiment [13]; 1% in experiment [14]; 3% in experiment [15]; 0% in experiment [18]. The inhibition in experiment [19] was determined as 5%; in experiment [20], 6%. The Ratio in experiment [25] came out at 5. The Ki in [6] worked out at 18400 nM; in experiment [21], 3450 nM. Besides, in experiment [9], the Selectivity ratio is 7.5. In addition, the ID50 in experiment [10] stood at 4800 nM; in experiment [16], 32600 nM. The inhibition result in [12] and in [17] was “Active” each time.
`Cc1cc(N/N=C/c2ccc(O)cc2)nc2ccccc12`: the inhibition was 22% in [1]; 62% in experiment [2]; 13% in experiment [3]; 24% in [4]; 16% in experiment [5]; 31% in [7]. Besides, the inhibition in experiment [8] came to 40%; in [11], 43%; in experiment [13], 0%; in experiment [14] it was 0%; in experiment [15], 12%; in experiment [18] it was 0%. Besides, the inhibition in experiment [19] amounted to 21%; in experiment [20], 24%. In addition, the Ratio in experiment [25] was 5. Also, the Ki came out at 2590 nM in experiment [6] and 550 nM in experiment [21]. The Selectivity ratio in experiment [9] stood at 2.4. Further, the values for the ID50 in [10] and in experiment [16] were 1300 nM and 2700 nM, respectively. The inhibition entry in experiment [12] and in experiment [17] was “Active” each time.
Regarding `COc1ccc(/C=N/Nc2ccccn2)cc1`, the inhibition entry in [22] and in experiment [23] was “Active” throughout.
Take `COc1ccc(/C=N/Nc2nc3c(c(-c4ccccc4)c2C#N)CCCC3)cc1`: the inhibition result in experiment [22] and in [23] was “Active” each time.

The values above are taken from ChEMBL document CHEMBL3797082, “A multicomponent pharmacophore fragment-decoration approach to identify selective LRRK2-targeting probes” (Medchemcomm, 2016).
